According to patent US20140221282A1, “LONG DURATION DUAL HORMONE CONJUGATES” (priority 2011, published 2014):
Ends that are not written are not given here. Y‑shaped‑mPEG40KD = Y-shaped methoxy-PEG of 40 kDa attached to the Lys side chain; mPEG40KD = methoxy-PEG of 40 kDa

Assays:
[1] = biological target: amylin receptor; experiment: Amylin receptor binding assay, rat nucleus accumbens membranes; conditions: 125I-rat amylin displacement
Excerpt: Dried glass fiber plates were combined with scintillant and counted on a multi-well Perkin Elmer scintillation counter, as well known in the art.

[2] = Food intake in lean rats; format: in vivo; conditions: for food intake: SC once weekly injection 125 nmol/kg
Description: A variety of food intake assays are available to one of skill in the art. For example, in the so-called “home cage model” of food intake, subjects (e.g., rats) are maintained in their home cage, and food intake along with total weight of the subject is measured following injection of test compound. In the so-called “feeding patterns model” of food intake assay, subjects (e.g., rats) are habituated to a feeding chamber and to injections prior to testing. After test compound administration, the subjects are immediately placed into the feeding chamber, and food intake is automatically determined as a function of time (e.g., 1-min intervals). For both tests, the food is standard chow or any of a variety of chows (e.g., high fat) known in the art. In the so-called “mouse food intake” assay, a test compound may be tested for appetite suppression, or for an effect on body weight gain in diet-induced obesity (DIO) mice. In a typical mouse food intake assay, female NIH/Swiss mice (8-24 weeks old) are group housed with a 12:12 hour light:dark cycle with lights on at 0600. Water and a standard pelleted mouse chow diet are available ad libitum, except as noted. Animals are fasted starting at approximately 1500 hrs, I day prior to experiment. The morning of the experiment, animals are divided into experimental groups. In a typical study, n=4 cages with 3 mice/cage. At time=0 min, all animals are given an intraperitoneal injection of vehicle or compound, typically in an amount ranging from about 10 nmol/kg to 75 nmol/kg, and immediately given a pre-weighed amount (10-15 g) of the standard chow. Food is removed and weighed at various times, typically 30, 60, and 120 minutes, to determine the amount of food consumed. See e.g., Morley et al., 1994, Am. J. Physiol. 267:R178-R184). Food intake is calculated by subtracting the weight of the food remaining at the e.g. 30, 60, 120, 180 and/or 240 minute time point, from the weight of the food provided initially at time=0. Significant treatment effects are identified by ANOVA (p<0.05). Where a significant difference exists, test means are compared to the control mean using Dunnett's test (Prism v. 2.01, GraphPad Software Inc., San Diego, Calif.). For any test described herein, administration of test compound can be by any means, including injection (e.g., subcutaneous, intraperitoneal, and the like), oral, or other methods of administration known in the art.
FIGS. 13A-13B provide the result of a multi-day food intake assays. The effect on 24-hour food intake was investigated for Cmpds 69, 73, 72, 70, and 74, using vehicle as control. […] In the case of some of the compounds, weight loss was still evident even after one week. […]
As shown in FIGS. 19A-19B, most compounds in the tested series provided weight loss which was still evident after 7-days.

[3] = Body weight change in lean rats; format: in vivo; conditions: for body weight reduction: SC 125 nmol/kg (FIG. 17)
Description: Lean rats were administered a subcutaneous (SC) once weekly injection of test compound (125 nmol/kg) or vehicle. FIGS. 13A-13B provide the result of a multi-day food intake assays. The effect on 24-hour food intake was investigated for Cmpds 69, 73, 72, 70, and 74, using vehicle as control. […] In the case of some of the compounds, weight loss was still evident even after one week.
The effect on 24-hour food intake, as judged with SC injection (125 nmol/kg), was investigated for Cmpds 74, 76, 77 and 78.
Test animals (lean rats) were injected SC at 125 nmol/kg, and body weight corrected for vehicle (FIG. 19A) and cumulative food intake (FIG. 19B) were determined for 7-days. As shown in FIGS. 19A-19B, most compounds in the tested series provided weight loss which was still evident after 7-days.

[4] = Body weight change in lean rats; format: in vivo; conditions: for body weight reduction: Cmpd 77 31.25-250 nmol/kg, Cmpd 79 250 nmol/kg (FIG. 18)
[5] = Body weight change in diet induced obese (DIO) rats; format: in vivo, DIO Sprague Dawley rats; conditions: SC once a week 125 nmol/kg, four weeks
Description: The effect of Cmpd 14 on body weight was examined in male outbred diet-induced obese Sprague Dawley rats. Percent vehicle-corrected change in body weight was measured relative to PEGylated parent peptides alone and in combination. […]
Specifically, in this experiment the duration of action on food intake and change in body weight was compared for compounds having a single active peptide element (Cmpd 6 and Cmpd 7) relative to the combined dosing of these compounds, and further relative to LDDHC Cmpd 14, having the active peptide elements of Cmpds 6-7 separated by a 40 kDa PEG water-soluble polymeric spacer. […] In the combination dosing, each of Cmpd 6 and Cmpd 7 was administered at 32 nmol/kg. The test subjects were DIO rats (n=6/group, body weight baseline=478 g). […]
Plasma drug levels were determined by ELISA assay.
[…] The baseline body weight was 505 gm.

[6] = SC once weekly injection 125 nmol/kg
[7] = Cmpd 77 31.25-250 nmol/kg, Cmpd 79 250 nmol/kg (FIG. 18)

| Molecule | IC50 [1] [nM] | food intake [2] | body weight [3, 6] | other results |
| --- | --- | --- | --- | --- |
| CC(C)C[C@H](NC(=O)[C@H](CC(N)=O)NC(=O)[C@H](CC(N)=O)NC(=O)[C@H](CO)NC(=O)[C@H](CO)NC(=O)[C@H](CCCNC(=N)N)NC(=O)[C@@H](NC(=O)[C@H](CC(C)C)NC(=O)[C@H](Cc1ccccc1)NC(=O)[C@H](CC(N)=O)NC(=O)[C@H](C)NC(=O)[C@H](CC(C)C)NC(=O)[C@H](CCCNC(=N)N)NC(=O)[C@H](CCC(N)=O)NC(=O)[C@@H](NC(=O)[C@H](C)NC(=O)[C@@H]1CSSC[C@H](NC(=O)[C@@H](N)CCCCN)C(=O)N[C@@H](CC(N)=O)C(=O)N[C@@H]([C@@H](C)O)C(=O)N[C@@H](C)C(=O)N[C@@H]([C@@H](C)O)C(=O)N1)[C@@H](C)O)C(C)C)C(=O)NCC(=O)N1CCC[C@H]1C(=O)N[C@H](C(=O)N[C@@H](CC(C)C)C(=O)N1CCC[C@H]1C(=O)N1CCC[C@H]1C(=O)N[C@H](C(=O)N[C@@H](CC(N)=O)C(=O)N[C@H](C(=O)NCC(=O)N[C@@H](CO)C(=O)N[C@@H](CC(N)=O)C(=O)N[C@H](C(=O)N[C@@H](Cc1ccc(O)cc1)C(N)=O)[C@@H](C)O)C(C)C)[C@@H](C)O)C(C)C [Cmpd 49, reference compound] | 0.1 | – | – | – |
| CNTATCATQRLANFLVRSSNNLGPVLPPTNVGSNTY [Cmpd 50, [des-Lys^1]-Cmpd 49] | 0.42 | – | – | – |
| [K^21(mPEG40KD)]-Cmpd 51 (KCNTATCATQRLANFLVRSSK(mPEG 40 kDa)NLGPVLPPTNVGSNTY-NH2; cysteine pairing not given here) [Cmpd 69] | – | efficacious | efficacious | – |
| [K^21(mPEG40KD)]-Cmpd 52 (CNTATCATQRLANFLVRSSK(mPEG 40 kDa)NLGPVLPPTNVGSNTY-NH2; cysteine pairing not given here) [Cmpd 70] | – | efficacious | efficacious | – |
| [K^21(mPEG40KD)]-Cmpd 59 (CNTATCATQRLANFLVHSSK(mPEG 40 kDa)NFGPILPPTNVGSNTY-NH2; cysteine pairing not given here) [Cmpd 76] | – | – | – | food intake reduction ([2]; SC 125 nmol/kg (FIG. 17)): at least as efficacious as Cmpd 74; body weight reduction [3]: at least as efficacious as Cmpd 74 |
| [K^26(Y-shaped-mPEG40KD)]-Cmpd 53 (KCNTATCATQRLANFLVRSSNNLGPK(Y‑shaped‑mPEG40KD)LPPTNVGSNTY-NH2; cysteine pairing not given here) [Cmpd 75] | 470 | – | – | body weight ([3]; single SC dose, y-branched vs linear PEG): not as efficacious as the linear pegylated version, Cmpd 71 |
| [K^26(Y-shaped-mPEG40KD)]-Cmpd 60 (CNTATCATQRLANFLVHSSNNFGPK(Y‑shaped‑mPEG40KD)LPPTNVGSNTY-NH2; cysteine pairing not given here) [Cmpd 79] | – | – | – | body weight reduction [4]: not as efficacious as the linear pegylated version, Cmpd 77; food intake reduction [2, 7]: not as efficacious as the linear pegylated version, Cmpd 77 |
| [K^26(mPEG40KD)]-Cmpd 53 (KCNTATCATQRLANFLVRSSNNLGPK(mPEG40KD)LPPTNVGSNTY-NH2; cysteine pairing not given here) [Cmpd 71] | 66 | – | – | weight loss [5]: not as efficacious as infused Cmpd 49; body weight, dose response ([4]; 12-250 nmol/kg): reduced body weight and food intake in a dose dependent fashion; food intake, dose response ([2]; 12-250 nmol/kg): reduced body weight and food intake in a dose dependent fashion |
| [K^26(mPEG40KD)]-Cmpd 54 (CNTATCATQRLANFLVRSSNNLGPK(mPEG40KD)LPPTNVGSNTY-NH2; cysteine pairing not given here) [Cmpd 72] | – | efficacious | efficacious | – |
| [K^26(mPEG40KD)]-Cmpd 60 (CNTATCATQRLANFLVHSSNNFGPK(mPEG40KD)LPPTNVGSNTY-NH2; cysteine pairing not given here) [Cmpd 77] | – | – | – | body weight reduction [4]: dose dependent efficacy; food intake reduction [2, 7]: dose dependent efficacy; food intake reduction ([2]; SC 125 nmol/kg (FIG. 17)): at least as efficacious as Cmpd 74; body weight reduction [3]: at least as efficacious as Cmpd 74 |
| [K^31(mPEG40KD)]-Cmpd 55 (KCNTATCATQRLANFLVRSSNNLGPVLPPTK(mPEG40KD)VGSNTY-NH2; cysteine pairing not given here) [Cmpd 73] | – | efficacious | efficacious | – |
| [K^31(mPEG40KD)]-Cmpd 56 (CNTATCATQRLANFLVRSSNNLGPVLPPTK(mPEG40KD)VGSNTY-NH2; cysteine pairing not given here) [Cmpd 74] | – | efficacious | efficacious | – |
| [K^31(mPEG40KD)]-Cmpd 61 (CNTATCATQRLANFLVHSSNNFGPILPPTK(mPEG40KD)VGSNTY-NH2; cysteine pairing not given here) [Cmpd 78] | – | – | – | food intake reduction ([2]; SC 125 nmol/kg (FIG. 17)): at least as efficacious as Cmpd 74; body weight reduction [3]: at least as efficacious as Cmpd 74 |
| mPEG40KD-Cmpd 50 (CNTATCATQRLANFLVRSSNNLGPVLPPTNVGSNTY-NH2; cysteine pairing not given here; also: mPEG40KD attached, site not given here) [Cmpd 68] | 78 | – | – | – |
